Laboratory results from ChEMBL document CHEMBL5053505, “Rational Remodeling of Atypical Scaffolds for the Design of Photoswitchable Cannabinoid Receptor Tools” (J Med Chem, 2021).
pIC50: −log10 of the molar value. Active and inactive are the calls of the source. No cut-off for these calls is given here.

Experiments:
Cannabinoid receptor 2 [1] = molecular target: T1, Cannabinoid receptor 2 (Homo sapiens, UniProt P34972); assay: Antagonist activity at human CB2 Receptor expressed in CHO cell membranes measured after 24 hrs by HTRF assay; type: functional, Cell membrane
Cannabinoid receptor 1 [2] = molecular target: T2, Cannabinoid receptor 1 (Homo sapiens, UniProt P21554); assay: Antagonist activity at human CB1 Receptor expressed in CHO cell membranes measured after 24 hrs by HTRF assay; type: functional, Cell membrane
Cannabinoid receptor 2 [3] = molecular target: T1, Cannabinoid receptor 2; assay: Antagonist activity at human CB2 Receptor expressed in CHO-K1 cells assessed as reduction in CP55940-induced ERK1/2 phosphorylation measured Western blot analysis; type: functional, cell-based; conditions: filed as antagonist
Cannabinoid receptor 1 [4] = molecular target: T2, Cannabinoid receptor 1; assay: Antagonist activity at human CB1 Receptor expressed in CHO-K1 cells assessed as reduction in CP55940-induced ERK1/2 phosphorylation measured Western blot analysis; type: functional, cell-based

T1 sequence (P34972 whole entry): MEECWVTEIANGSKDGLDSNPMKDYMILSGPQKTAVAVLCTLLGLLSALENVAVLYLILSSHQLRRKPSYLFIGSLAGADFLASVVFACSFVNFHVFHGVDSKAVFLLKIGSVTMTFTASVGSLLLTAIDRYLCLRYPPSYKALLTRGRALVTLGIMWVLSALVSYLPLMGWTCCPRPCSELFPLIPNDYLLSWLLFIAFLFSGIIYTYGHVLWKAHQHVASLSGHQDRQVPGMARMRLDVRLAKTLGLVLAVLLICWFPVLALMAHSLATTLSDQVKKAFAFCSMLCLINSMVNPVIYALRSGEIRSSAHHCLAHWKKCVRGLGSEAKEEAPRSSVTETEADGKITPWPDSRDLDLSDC
T2 sequence (P21554 whole entry): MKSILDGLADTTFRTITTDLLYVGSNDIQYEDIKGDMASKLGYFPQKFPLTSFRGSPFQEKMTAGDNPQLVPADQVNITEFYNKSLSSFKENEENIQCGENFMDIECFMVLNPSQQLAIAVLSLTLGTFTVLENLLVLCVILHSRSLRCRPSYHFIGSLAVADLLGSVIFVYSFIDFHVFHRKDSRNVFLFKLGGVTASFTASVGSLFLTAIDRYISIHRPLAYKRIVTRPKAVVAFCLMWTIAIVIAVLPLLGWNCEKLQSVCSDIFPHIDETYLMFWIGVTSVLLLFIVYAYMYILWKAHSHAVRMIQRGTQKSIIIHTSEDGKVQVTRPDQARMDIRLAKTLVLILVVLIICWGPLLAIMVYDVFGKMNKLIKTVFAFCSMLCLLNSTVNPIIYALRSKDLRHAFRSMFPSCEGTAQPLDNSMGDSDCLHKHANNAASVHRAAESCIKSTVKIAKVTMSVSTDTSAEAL

Row | SMILES | pIC50 (Cannabinoid receptor 2 [1]) | pIC50 (Cannabinoid receptor 1 [2]) | Activity (Cannabinoid receptor 2 [3]) | Activity (Cannabinoid receptor 1 [4])
1 | Cc1c(C(=O)NCCCc2ccccc2/N=N/c2ccccc2)nn(CCCCCO)c1-c1ccccc1 | 5.47 | 5.05 |  | 
2 | Cc1c(C(=O)NCCc2ccccc2/N=N\c2ccccc2)nn(CCCCCO)c1-c1ccccc1 | 6.44 | 5.77 |  | 
3 | Cc1c(C(=O)NCc2cccc(/N=N\c3ccccc3)c2)nn(CCCCCO)c1-c1ccccc1 | 5.15 | 5.24 |  | 
4 | Cc1c(C(=O)NCCCc2ccc(/N=N\c3ccccc3)cc2)nn(CCCCCO)c1-c1ccccc1 | 5.46 | 5.27 |  | 
5 | Cc1c(C(=O)NCc2ccccc2/N=N\c2ccccc2)nn(CCCCCO)c1-c1ccccc1 | 7.15 | 5.96 | Active | inactive
6 | Cc1c(C(=O)NCc2cccc(/N=N/c3ccccc3)c2)nn(CCCCCO)c1-c1ccccc1 |  | 5.03 |  | 
7 | Cc1c(C(=O)NCCCc2cccc(/N=N/c3ccccc3)c2)nn(CCCCCO)c1-c1ccccc1 | 5.43 | 5.32 |  | 
8 | Cc1c(C(=O)Nc2cccc(/N=N\c3ccccc3)c2)nn(CCCCCO)c1-c1ccccc1 | 6.39 | 5.62 |  | 
9 | Cc1c(C(=O)NCCCc2ccccc2/N=N\c2ccccc2)nn(CCCCCO)c1-c1ccccc1 | 5.89 | 5.41 |  | 
10 | Cc1c(C(=O)Nc2cccc(/N=N/c3ccccc3)c2)nn(CCCCCO)c1-c1ccccc1 | 5.82 | 5.21 |  | 
11 | Cc1c(C(=O)NCCc2cccc(/N=N\c3ccccc3)c2)nn(CCCCCO)c1-c1ccccc1 | 5.80 | 5.48 |  | 
12 | Cc1c(C(=O)NCCCc2cccc(/N=N\c3ccccc3)c2)nn(CCCCCO)c1-c1ccccc1 | 5.96 | 5.42 |  | 
13 | Cc1c(C(=O)Nc2ccccc2/N=N/c2ccccc2)nn(CCCCCO)c1-c1ccccc1 | 5.26 |  |  | 
14 | Cc1c(C(=O)NCc2ccc(/N=N\c3ccccc3)cc2)nn(CCCCCO)c1-c1ccccc1 | 5.16 | 5.39 |  | 
15 | Cc1c(C(=O)NCc2ccccc2/N=N/c2ccccc2)nn(CCCCCO)c1-c1ccccc1 | 5.49 | 5.80 | Active | inactive
16 | Cc1c(C(=O)NCCc2ccccc2/N=N/c2ccccc2)nn(CCCCCO)c1-c1ccccc1 | 5.68 | 5.42 |  | 
17 | Cc1c(C(=O)Nc2ccc(/N=N\c3ccccc3)cc2)nn(CCCCCO)c1-c1ccccc1 | 5.05 |  |  | 
18 | Cc1c(C(=O)NCCc2ccc(/N=N\c3ccccc3)cc2)nn(CCCCCO)c1-c1ccccc1 | 5.28 | 5.48 |  | 
19 | Cc1c(C(=O)NCCCc2ccc(/N=N/c3ccccc3)cc2)nn(CCCCCO)c1-c1ccccc1 |  | 5.14 |  | 
20 | Cc1c(C(=O)NCCc2ccc(/N=N/c3ccccc3)cc2)nn(CCCCCO)c1-c1ccccc1 |  | 5.10 |  | 
21 | Cc1c(C(=O)NCc2ccc(/N=N/c3ccccc3)cc2)nn(CCCCCO)c1-c1ccccc1 |  | 5.08 |  | 
22 | Cc1c(C(=O)NCCc2cccc(/N=N/c3ccccc3)c2)nn(CCCCCO)c1-c1ccccc1 | 5.19 | 5.23 |  | 
23 | Cc1c(C(=O)Nc2ccccc2/N=N\c2ccccc2)nn(CCCCCO)c1-c1ccccc1 | 6.21 |  |  | 
